Values after ≈ are worked out from the molar mass of the structure shown. Like-named read-outs stand apart in the source and are kept apart here.
Legend:
K. pneumoniae CQ1947 = experiment: Broth microdilution MIC, glycosides with or without polymyxins; type: cell-based, Klebsiella pneumoniae; details: strain F
P. aeruginosa CQ4924 = experiment: as above; type: cell-based, Pseudomonas aeruginosa; details: strain H; for MIC (antibiotic susceptibility profile) / RIS (susceptibility category): antibiotic alone
K. pneumoniae CQ4921 = experiment: Broth microdilution MIC/MBC, glycosides with or without polymyxins; type: cell-based, Klebsiella pneumoniae; details: strain C
K. pneumoniae CQ1942 = experiment: Broth microdilution MIC, glycosides with or without polymyxins; type: cell-based, Klebsiella pneumoniae; details: strain E
E. cloacae CQ1941 = experiment: Broth microdilution MIC/MBC, glycosides with or without polymyxins; type: cell-based; details: strain D
E. coli ATCC 25922 = experiment: as above; type: cell-based, Escherichia coli; details: strain A
A. baumannii CQ4322 = experiment: as above; type: cell-based, Acinetobacter baumannii; details: strain G; for RIS (susceptibility category) / MIC (antibiotic susceptibility profile): antibiotic alone
E. coli NCTC 13846 = experiment: as above; type: cell-based, Escherichia coli; details: agent alone, no adjuvant (polymyxin conc. 0); strain B
HEK-293 cells = tested on: HEK-293 cells; parameters: method as in PMID 30532748; details: polymyxin alone; cited from earlier work
HEK-293T cells = experiment: Resazurin cell viability assay (cytotoxicity); type: cell-based, human; details: tested alone (no polymyxin adjuvant); 72 h
Procedure: (§1) Cytotoxicity of each compound alone or in combination with different polymyxin concentrations was evaluated through the resazurin cell viability assay[49] in human embryonic HEK-293T cells, as well as in human colon adenocarcinoma Caco-2 cells, after a 72-h long incubation period.
(§2) HEK-293T and Caco-2 cells were grown in RPMI 1640 medium (VWR) supplemented with 10% FBS (Biowest), 1% PenStrep (Sigma Aldrich), and 1% glutamine (Biowest) in a humidified incubator at 37 °C with a 5% CO2 atmosphere. Twice a week, the medium was aspirated, the cells were washed with DPBS (VWR), trypsinized with trypsin–EDTA solution (Biowest), and resuspended in fresh culture medium. The dose-dependent effects of each glycoside or glycoside-polymyxin combination were evaluated by the resazurin cell viability assay. Polymyxins (colistin sulfate and PMB sulfate for microbiological assays, European Pharmacopoeia Reference Standards, Sigma-Aldrich) were firstly dissolved in sterilized Mili-Q water to a stock concentration of 1 mg/mL, while glycosides were dissolved in DMSO to a stock concentration of 30 mM. 1.5 × 10^4 cells/well in 96.5 µL of medium were seeded onto 96-well plates and incubated at 37 °C for 24 h. For each compound, ten stock dilutions (with concentrations from 750 to 75 µM) were prepared in fresh medium immediately prior to incubation. 16 µL of each dilution were added to each well so that the final glycoside concentrations ranged from 100 to 10 µM in each row in a final assay volume of 120 µL. In addition, the previously prepared polymyxin stock solutions were diluted in fresh medium, affording new stocks of 8, 4, and 2 µg/mL. The same volume (7.5 µL/well) of PMB or colistin was then added to each row to achieve a final polymyxin concentration of 0.5, 0.25, and 0.125 µg/mL, respectively, regardless of the glycoside concentration. In assays without polymyxin, the same volume (7.5 µL/well) of medium was added. In all assays, the maximum DMSO concentration was 0.33%. After a 72-h incubation at 37 °C, 12 µL of a 0.15 mg/mL resazurin (Sigma-Aldrich) in sterilized Mili-Q water were added to each well, and the plates were left incubating for another 4 h at 37 °C. Resorufin was measured at 570/600 nm, and the percentage of resazurin reduction, corresponding to the cell viability percentage, was calculated according to Eq. (1)[60]. IC50 values were obtained by best fitting the dose-dependent inhibition curves using the Prism 9® software. The results were expressed as the mean ± SD of three independent replicates, with only data from analysis with R^2 > 0.90 being considered.1 %Cellviability=Abssample-Absmediumcontrol/Abscellcontrol-Absmediumcontrol×100

Caco-2 cells = experiment: Resazurin cell viability assay (cytotoxicity); type: cell-based, human; details: tested alone (no polymyxin adjuvant); 72 h
Procedure: as §1, §2

[1] = Klebsiella pneumoniae, CQ1947, antibiotic alone, read-out: MIC (antibiotic susceptibility profile)
[2] = Klebsiella pneumoniae, CQ4921, antibiotic alone, read-out: MIC (antibiotic susceptibility profile)
[3] = Klebsiella pneumoniae, CQ1942, antibiotic alone, read-out: MIC (antibiotic susceptibility profile)
[4] = Enterobacter cloacae, CQ1941, antibiotic alone, read-out: MIC (antibiotic susceptibility profile)
[5] = Escherichia coli, ATCC25922, antibiotic alone, read-out: MIC (antibiotic susceptibility profile)
[6] = agent alone, no adjuvant (polymyxin conc. 0)

Molecule	MIC (K. pneumoniae CQ1947; [1]) [µg/mL]	MIC (antibiotic susceptibility profile) (P. aeruginosa CQ4924) [µg/mL]	MIC (K. pneumoniae CQ4921; [2]) [µg/mL]	MIC (K. pneumoniae CQ1942; [3]) [µg/mL]	MIC (E. cloacae CQ1941; [4]) [µg/mL]	MIC (E. coli ATCC 25922; [5]) [µg/mL]	RIS (susceptibility category) (P. aeruginosa CQ4924)	RIS (susceptibility category) (A. baumannii CQ4322)	MIC (antibiotic susceptibility profile) (A. baumannii CQ4322) [µg/mL]	other results
CC(C)(O/N=C(\C(=O)N[C@@H]1C(=O)N2C(C(=O)[O-])=C(C[n+]3ccccc3)CS[C@H]12)c1csc(N)n1)C(=O)O [Ceftazidime, reference compound]	≥ 128	4 (≈ 7.32 µM)	1 (≈ 1.83 µM)	≥ 128	≥ 128	0.125 to 0.25 (≈ 0.229 to 0.457 µM)	–	–	–	–
CO/N=C(\C(=O)N[C@@H]1C(=O)N2C(C(=O)O)=C(COC(C)=O)CS[C@H]12)c1csc(N)n1 [Cefotaxime, reference compound]	≥ 128	–	2 (≈ 4.39 µM)	≥ 128	≥ 128	0.06 (≈ 0.132 µM)	ERP	ERP	–	RIS (susceptibility category) (K. pneumoniae CQ4921; antibiotic alone): I/R
CO/N=C(\C(=O)N[C@@H]1C(=O)N2C(C(=O)[O-])=C(C[N+]3(C)CCCC3)CS[C@H]12)c1csc(N)n1 [Cefepime, reference compound]	32 (≈ 66.6 µM)	–	–	> 64	> 64	0.03 to 0.06 (≈ 0.0624 to 0.125 µM)	–	–	–	–
C[C@@H](O)[C@H]1C(=O)N2C(C(=O)O)=C(S[C@@H]3CN[C@H](C(=O)Nc4cccc(C(=O)O)c4)C3)[C@H](C)[C@H]12 [Ertapenem, reference compound]	16 to 64 (≈ 33.6 to 135 µM)	–	8 to 64 (≈ 16.8 to 135 µM)	≥ 128	64 (≈ 135 µM)	0.008 (≈ 0.0168 µM)	ERP	ERP	–	–
polymyxin B [PMB, reference compound]	–	–	–	–	–	–	–	–	–	MIC (K. pneumoniae CQ1947; [6]): 0.5 µg/mL; MIC (E. coli NCTC 13846): 4 µg/mL; IC50 (HEK-293 cells): > 500 µg/mL; MIC (P. aeruginosa CQ4924; [6]): 1 µg/mL; MIC (A. baumannii CQ4322; [6]): 0.5 µg/mL; MIC (K. pneumoniae CQ4921; [6]): 0.5 µg/mL; MIC (K. pneumoniae CQ1942; [6]): 0.5 µg/mL; MIC (E. cloacae CQ1941; [6]): 0.5 µg/mL; MIC (E. coli ATCC 25922; [6]): 0.5 µg/mL; IC50 (HEK-293T cells): > 115 µg/mL; IC50 (Caco-2 cells): > 115 µg/mL
C[C@@H](O)[C@H]1C(=O)N2C(C(=O)O)=C(S[C@@H]3CN[C@H](C(=O)N(C)C)C3)[C@H](C)[C@H]12 [Meropenem, reference compound]	16 to 32 (≈ 41.7 to 83.4 µM)	16 (≈ 41.7 µM)	4 (≈ 10.4 µM)	≥ 128	32 to 64 (≈ 83.4 to 167 µM)	0.016 to 0.03 (≈ 0.0417 to 0.0782 µM)	–	–	–	–
C[C@@H](O)[C@H]1C(=O)N2C(C(=O)O)=C(SCCN=CN)C[C@H]12 [Imipenem, reference compound]	8 to 16 (≈ 26.7 to 53.4 µM)	16 (≈ 53.4 µM)	4 (≈ 13.4 µM)	≥ 128	16 (≈ 53.4 µM)	0.125 to 0.25 (≈ 0.418 to 0.835 µM)	–	–	32 to 64	–
NC[C@H]1O[C@H](O[C@H]2[C@H](O)[C@@H](O[C@H]3O[C@H](CO)[C@@H](O)[C@H](N)[C@H]3O)[C@H](N)C[C@@H]2N)[C@H](N)C[C@@H]1O [Tobramycin, reference compound]	≥ 128	1 (≈ 2.14 µM)	0.25 (≈ 0.535 µM)	16 (≈ 34.2 µM)	≥ 128	0.5 (≈ 1.07 µM)	–	–	32 (≈ 68.4 µM)	–
NCC[C@H](O)C(=O)N[C@@H]1C[C@H](N)[C@@H](O[C@H]2O[C@H](CN)[C@@H](O)[C@H](O)[C@H]2O)[C@H](O)[C@H]1O[C@H]1O[C@H](CO)[C@@H](O)[C@H](N)[C@H]1O [Amikacin, reference compound]	32 (≈ 54.6 µM)	4 (≈ 6.83 µM)	0.5 to 2 (≈ 0.854 to 3.42 µM)	16 (≈ 27.3 µM)	≥ 128	1 to 2 (≈ 1.71 to 3.42 µM)	–	–	≥ 128	–
CNC(C)C1CCC(N)C(OC2C(N)CC(N)C(OC3OCC(C)(O)C(NC)C3O)C2O)O1 (centres unmarked) [Gentamicin, reference compound]	64 (≈ 134 µM)	2 (≈ 4.19 µM)	0.25 to 0.5 (≈ 0.523 to 1.05 µM)	1 (≈ 2.09 µM)	≥ 128	0.5 (≈ 1.05 µM)	wt	–	32 to 64	–
CC1(C)S[C@@H]2[C@H](NC(=O)[C@H](N)c3ccc(O)cc3)C(=O)N2[C@H]1C(=O)O [Amoxicillin, reference compound]	≥ 128	–	≥ 128	≥ 128	≥ 128	4 (≈ 10.9 µM)	ERP	ERP	–	–
C[C@H]1[C@H](NC(=O)/C(=N\OC(C)(C)C(=O)O)c2csc(N)n2)C(=O)N1S(=O)(=O)O [Aztreonam, reference compound]	0.25 (≈ 0.574 µM)	–	–	> 64	> 64	–	–	ERP	–	–
CC1(C)S[C@@H]2[C@H](NC(=O)[C@H](N)c3ccccc3)C(=O)N2[C@H]1C(=O)O [Ampicillin, reference compound]	≥ 128	–	≥ 128	≥ 128	≥ 128	4 (≈ 11.4 µM)	ERP	ERP	–	–

From PMC10817917, “Alkyl deoxyglycoside-polymyxin combinations against critical priority carbapenem-resistant gram-negative bacteria” (Scientific Reports, 2024)
